Experimental data reported in patent publication US12590121B2, “Peptide compound with repetitive sequences” (KING ABDULLAH UNIVERSITY OF SCIENCE AND TECHNOLOGY, priority 2020, dated 2026).
Non-standard residues stand in square brackets, D forms with d. Residues, ends and D or L forms follow the SMILES beside them. Cha = N[C@@H](CC1CCCCC1)C(=O)O

Legend:
[1] = Viscosity of peptide solution before and after gelation (rheometer, flow experiment); type: physicochemical
Procedure: The viscosity of the peptide solution before and after gelation is determined using the same rheometer, 25 mm parallel plate geometry, and a gap of 0.5 mm at 25° C. For the peptide solution, 250 μl of 13 mg/mL peptide solution is dropped on the Peltier plate and measured. For peptide gel samples, the peptide solution and 10×PBS buffer are mixed with the ratio of 1:10 on the Peltier plate and directly measured. The flow experiment is set up by starting the shear rate from 0.1 to 1500 s-1 for a 200-seconds duration. The value of the shear rate that we choose for our printing system is calculated using the equation below: 51
[formula] • γ: shear rate (s−1); Q: flow rate (95 μL/s); d: diameter of needle (0.514 mm).

[2] = tested on: human dermal fibroblasts (hDF); type: cell-based
Procedure: hDF is used in bioprinting experiments. Each cell type is cultured in its complete growth media, as described before, and cells at passages 4-8 are used in printing experiments. For bioprinting, hDF is mixed with PBS at a final concentration of 5×10^6 and 8×10^6 cells/ml, respectively, and loaded into the microfluidic tubing of the robotic arm bioprinter. In the printing process, the flow rates are 10 μl/min, 55 μl/min, and 8 μl/min for cells, peptide solution, and 5×PBS, respectively. Different cell-laden structures are printed including cuboids with 10 mm edges and 2.6 mm height, and cylinders with 10 mm diameter, and a height of 10 mm. After printing, the printed cell-laden constructs are placed in the CO2 incubator for 5 min before the addition of complete growth media. The printed cell-laden constructs are placed in standard conditions (37° C., 5% CO2, and 95% relative humidity), and the media are changed every three days.
LIVE/DEAD® Cell Viability/Cytotoxicity Kit (ThermoFisher®, USA) is used to assess the viability of cells within the 3D printed constructs. The same protocol, as described earlier, is followed except for increasing the incubation time to 1 hour. The viability of cells is assessed immediately after printing, within 1 hour, designated as day 0 and at days 3, 7, 17 and 24 post-printing. For each time point, two cell-laden constructs are analyzed, and images are taken from different areas of the construct, including the center, edges, top, and bottom. Stained printed cell-laden constructs are imaged using an inverted laser scanning confocal microscope (Zeiss™ LSM 880 Inverted Confocal Microscope, Germany). The number of live and dead cells are counted using imageJ software, and the percentage of cell viability is calculated as the average ratio of live to total cells.

[3] = Peptide gelation studies (vial inversion method); type: physicochemical; details: for gelation time: 1×PBS buffer; for minimum gelation concentration: as used for 3D cell culture
Procedure: The peptide powder is dissolved in 0.90 mL of Milli-Q® water and vortexed until a clear and homogeneous solution is observed. Then 0.10 mL of 10×PBS buffer (w/o Ca^2+ and Mg^2+) is added to the peptide solution. The glass vial is kept undisturbed, and the hydrogel formation is observed using the vial inversion method. The time and minimum concentration at which each peptide has formed a hydrogel are noted.

[4] = Viscoelastic characterization: mechanical stiffness of peptide hydrogels (rheometer); type: physicochemical
Procedure: The viscoelastic characteristics of peptide hydrogels, including the mechanical stiffness and viscosity, are analyzed using TA Ares-G2 Rheometer equipped with advanced Peltier system (APS). The mechanical stiffness of the peptide gels is measured using an 8 mm parallel plate with a gap of 1.8 mm, between the upper and lower plates, and at 22° C. The hydrogels are prepared, one day before the measurement, by mixing 135 μl of peptide solution, and 15 μl of 10×PBS inside a 9 mm internal diameter Sigmacote® coated glass casting ring. The rings are then kept inside Petri dishes at room temperature with water surrounding and tightly sealed to avoid dehydration. For each peptide, six replicates are prepared to control the accuracy of the measurements. The stiffness is analyzed through three successive tests, which are time-sweep, frequency-sweep, and amplitude-sweep. Time-sweep is first performed for 5 minutes with angular frequency and a strain of 1 rad/s and 0.1%, respectively. A frequency sweep is subsequently performed on the sample for a range of angular frequency of 0.1-100 rad/s with the same strain of 0.1%. The tests are completed with the amplitude sweep by applying a gradual increase of strain from 0.01% to 100% at 1 rad/s angular frequency.

[5] = gel, 13 mg/ml, shear rate 29.7 s^−1

Compound	Viscosity [1, 5] [Pa · s]	Viscosity ([1]; solution, 13 mg/mL) [Pa · s]	cell viability in the center versus the edge of the filled cube structure [2]	gelation time ([3]; 1 mg/ml)	gelation time ([3]; 10 mg/ml)	Loss Modulus (G′) ([4]; 1 mg/mL hydrogel) [kPa]	Storage Modulus (G′) ([4]; 1 mg/mL hydrogel) [kPa]	tan δ (G″/G′) ([4]; 1 mg/mL hydrogel)	Loss Modulus (G′) ([4]; 2 mg/mL hydrogel) [kPa]	Storage Modulus (G′) ([4]; 2 mg/mL hydrogel) [kPa]	tan δ (G″/G′) ([4]; 2 mg/mL hydrogel)	Loss Modulus (G′) ([4]; 5 mg/mL hydrogel) [kPa]	Storage Modulus (G′) ([4]; 5 mg/mL hydrogel) [kPa]	tan δ (G″/G′) ([4]; 5 mg/mL hydrogel)	Loss Modulus (G′) ([4]; 8 mg/mL hydrogel) [kPa]	Storage Modulus (G′) ([4]; 8 mg/mL hydrogel) [kPa]	gelation time ([3]; 2 mg/ml) [min]	gelation time ([3]; 3 mg/ml) [min]	gelation time ([3]; 5 mg/ml) [min]	gelation time ([3]; 20 mg/ml) [min]	also measured
CC[C@H](C)[C@H](NC(C)=O)C(=O)N[C@H](C(=O)N[C@@H](Cc1ccccc1)C(=O)N[C@@H](CCCCN)C(N)=O)[C@@H](C)CC [IIFK, Ac-Ile-Ile-Phe-Lys-NH2] (Ac-IIFK-NH2)	0.56	0.09	no difference	less than 2.5 h	less than 3 min	0.13 ± 0.04	1.25 ± 0.86	0.10	1.31 ± 0.12	14.45 ± 1.37	0.09	2.39 ± 0.11	27.26 ± 1.30	0.09	5.00 ± 0.31	49.74 ± 5.02					minimum gelation concentration [3]: 2 mg/mL; tan δ (G″/G′) ([4]; 8 mg/mL hydrogel): 0.10; Loss Modulus (G′) ([4]; 10 mg/mL hydrogel): 9.04 ± 0.56 kPa; Storage Modulus (G′) ([4]; 10 mg/mL hydrogel): 94.18 ± 7.12 kPa; tan δ (G″/G′) ([4]; 10 mg/mL hydrogel): 0.10; Loss Modulus (G′) ([4]; 13 mg/mL hydrogel): 8.90 ± 0.36 kPa; Storage Modulus (G′) ([4]; 13 mg/mL hydrogel): 108.21 ± 5.02 kPa; tan δ (G″/G′) ([4]; 13 mg/mL hydrogel): 0.08
CC[C@H](C)[C@H](NC(C)=O)C(=O)N[C@H](C(=O)N[C@@H](CC1CCCCC1)C(=O)N[C@@H](CCCCN)C(N)=O)[C@@H](C)CC [IIZK, Ac-Ile-Ile-Cha-Lys-NH2] (Ac-II[Cha]K-NH2)	0.47	0.03	slightly lower	less than 7 min		0.88 ± 0.04	6.52 ± 0.18	0.13	2.02 ± 0.09	16.82 ± 0.72	0.12	7.08 ± 0.59	64.74 ± 4.89	0.11	10.91 ± 0.44	89.40 ± 1.86					minimum gelation concentration [3]: 1 mg/mL; tan δ (G″/G′) ([4]; 8 mg/mL hydrogel): 0.12; Loss Modulus (G′) ([4]; 10 mg/mL hydrogel): 15.54 ± 0.68 kPa; Storage Modulus (G′) ([4]; 10 mg/mL hydrogel): 134.04 ± 5.99 kPa; tan δ (G″/G′) ([4]; 10 mg/mL hydrogel): 0.12; Loss Modulus (G′) ([4]; 13 mg/mL hydrogel): 37.76 ± 2.38 kPa; Storage Modulus (G′) ([4]; 13 mg/mL hydrogel): 271.34 ± 35.09 kPa; tan δ (G″/G′) ([4]; 13 mg/mL hydrogel): 0.14
CC[C@H](C)[C@H](NC(C)=O)C(=O)N[C@@H](CC1CCCCC1)C(=O)N[C@@H](CC1CCCCC1)C(=O)N[C@@H](CCCCN)C(N)=O [IZZK, Ac-Ile-Cha-Cha-Lys-NH2] (Ac-I[Cha][Cha]K-NH2)	0.48	0.06	slightly lower			0.36 ± 0.08	3.71 ± 0.19	0.10	1.44 ± 0.07	15.53 ± 0.74	0.09	11.60 ± 0.51	85.87 ± 6.50	0.14	29.70 ± 1.54	193.09 ± 10.13					tan δ (G″/G′) ([4]; 8 mg/mL hydrogel): 0.15; Loss Modulus (G′) ([4]; 10 mg/mL hydrogel): 39.71 ± 1.50 kPa; Storage Modulus (G′) ([4]; 10 mg/mL hydrogel): 222.13 ± 8.16 kPa; tan δ (G″/G′) ([4]; 10 mg/mL hydrogel): 0.18; Loss Modulus (G′) ([4]; 13 mg/mL hydrogel): 54.56 ± 1.46 kPa; Storage Modulus (G′) ([4]; 13 mg/mL hydrogel): 314.91 ± 10.10 kPa; tan δ (G″/G′) ([4]; 13 mg/mL hydrogel): 0.17
FFFK: ultrashort amphiphilic peptide, one-letter amino acid sequence (Ac-FFFK-NH2)					<2 min												<15	<10	<5		gelation time ([3]; 4 mg/ml): <5 min; gelation time (in words) ([3]; 20 mg/ml): simultaneously
FFIK: ultrashort amphiphilic peptide, one-letter amino acid sequence (Ac-FFIK-NH2)					<5 min												<10	<10	<5	<5	gelation (in words) ([3]; 1 mg/ml, in 1 h): Does not gel
FIIK: ultrashort amphiphilic peptide, one-letter amino acid sequence (Ac-FIIK-NH2)				<15 min	<5 min												<5	<10	<10	<5	gel quality (in words) ([3]; 1 mg/ml): Soft gel
IFFK: ultrashort amphiphilic peptide, one-letter amino acid sequence (Ac-IFFK-NH2)				>60 min	<5 min												<10	<5	<5	<5	gel quality (in words) ([3]; 1 mg/ml): Slightly; gelation time ([3]; 4 mg/ml): <5 min
ZIIK: ultrashort amphiphilic peptide, one-letter sequence; Z is cyclohexylalanine (Ac-[Cha]IIK-NH2; SMILES CC[C@H](C)[C@H](NC(=O)[C@H](CC1CCCCC1)NC(C)=O)C(=O)N[C@H](C(=O)N[C@@H](CCCCN)C(N)=O)[C@@H](C)CC)				<60 min	<5 min												<10		<10	<5	gel quality (in words) ([3]; 1 mg/ml): Very soft gel
